Experimental findings from patent US9605026B2, “Hydrogen-bond surrogate peptides and peptidomimetics for p53 reactivation” (New York University, priority 2013, dated 2017) are described below.

Common to all, as to type: cell-based, human
Test [1] has as its system p53. The test can be described thus: p53 transcriptional activity (Cignal p53 luciferase reporter) in UMSCC47 cells. The conditions noted are these: 24 hours. The source says:
(§1) FIG. 5A is an schematic illustration showing that CH1 has two distinct target sites. HIF1-α/p300 structures were used as guides to design helix mimetics that target site A and site B on the CH1 domain of p300. […] CH1iA (SEQ ID NO: 7) and CH1iB (SEQ ID NO: 8) were designed to mimic two helices from the C-terminal domain of HIF-1α. The peptides were locked into the helical conformation by the hydrogen bond surrogate method. FIG. 5C is a graph of p53 activity. UMSCC47 (left) and UMSCC74A (right) cells were co-transfected with a p53 Firefly luciferase reporter plasmid and a control Renilla luciferase plasmid. After 24 hours, cells were treated with control (vehicle), CH1iA (10 μM), or CH1iB (10 μM) for 24 hours. Firefly luciferase activity was normalized to Renilla luciferase activity to control for transfection efficiency. Data is normalized to control and presented as mean±SEM. *P<0.05, n=3. FIG. 5D is a western blot showing total and acetylated p53 levels. UMSCC47 (left) and UMSCC74A (right) cells were treated with control (vehicle), CH1iA (10 μM), or CH1iB (10 μM) for 24 hours. Cell lysates were immunoblotted with anti-p53 or anti-acetylated[K382]-p53 antibody. FIG. 5E is a pair of graphs of p300, p53, p21, miR-34a, and miR-200c expression. UMSCC47 (top panel) and UMSCC74A (bottom panel) cells were treated with control (vehicle), CH1iA (10 μM), or CH1iB (10 μM) for 24 hours. mRNA expression was determined using qPCR with validated TaqMan assays. Data is normalized to control cells and presented as mean±SEM. *P<0.01, control vs. CH1iB, n=3. FIG. 5F is a western blot showing HPV16 E6-p300 association. UMSCC47 cells were treated with control (vehicle), CH1iA (10 μM), or CH1iB (10 μM) for 24 hours. Cell lysates were extracted, immunoprecipitated with anti-p300 antibody, and immunoblotted with anti-E6 antibody. Cell lysates were immunoblotted with anti-E6 or anti-p300 antibody for input control. FIG. 5G is a set of graphs of cell proliferation. UMSCC47 (top left panel), UMSCC74A (top right panel), and IMR90 (human normal fibroblasts) (bottom panel) cells were treated with control (vehicle), CH1iA (10 μM), CH1iB (10 μM), cis-platinum (10 μM), CH1iA (10 μM) and cis-platinum (10 μM), or CH1iB (10 μM) and cis-platinum (10 μM) for 24, 48, or 72 hours. Data is normalized to Day 0 and presented as mean±SEM. *P<0.01, control vs. CH1iB or cis-platinum, **P<0.01 CH1iB or cis-platinum vs. CH1iB and cis-platinum, n=6.
FIG. 6A is a western blot showing total and acetylated p53 levels. […] UMSCC47 cells were treated with control (vehicle), CH1iB (10 μM), cis-platinum (10 μM), or CH1iB (10 μM) and cis-platinum (10 μM) for 24 hours. mRNA expression was determined using qPCR with validated TaqMan assays. […]

In test [2] the test system is p53. Briefly: Western blot of total and acetylated[K382] p53 in UMSCC74A cells. Particulars: UMSCC74A (HPV-negative, p53 wildtype), 10 μM, 24 hours. The source says:
(§2) FIG. 5A is an schematic illustration showing that CH1 has two distinct target sites. HIF1-α/p300 structures were used as guides to design helix mimetics that target site A and site B on the CH1 domain of p300. […] CH1iA (SEQ ID NO: 7) and CH1iB (SEQ ID NO: 8) were designed to mimic two helices from the C-terminal domain of HIF-1α. The peptides were locked into the helical conformation by the hydrogen bond surrogate method. FIG. 5C is a graph of p53 activity. UMSCC47 (left) and UMSCC74A (right) cells were co-transfected with a p53 Firefly luciferase reporter plasmid and a control Renilla luciferase plasmid. After 24 hours, cells were treated with control (vehicle), CH1iA (10 μM), or CH1iB (10 μM) for 24 hours. Firefly luciferase activity was normalized to Renilla luciferase activity to control for transfection efficiency. Data is normalized to control and presented as mean±SEM. *P<0.05, n=3. FIG. 5D is a western blot showing total and acetylated p53 levels. UMSCC47 (left) and UMSCC74A (right) cells were treated with control (vehicle), CH1iA (10 μM), or CH1iB (10 μM) for 24 hours. Cell lysates were immunoblotted with anti-p53 or anti-acetylated[K382]-p53 antibody. […] UMSCC47 (top panel) and UMSCC74A (bottom panel) cells were treated with control (vehicle), CH1iA (10 μM), or CH1iB (10 μM) for 24 hours. mRNA expression was determined using qPCR with validated TaqMan assays. […]

For test [3], the system named is p300, p53, and p53-regulated genes. The test can be described thus: qPCR expression of p300, p53, p21, miR-34a, miR-200c in UMSCC74A cells. The conditions noted are these: 10 μM, 24 hours.
From the text: as §2, with “hours.” for “hours. Firefly luciferase activity was normalized to Renilla luciferase activity to control for transfection efficiency. Data is normalized to control and presented as mean±SEM. *P<0.05, n=3. FIG. 5D is a western blot showing total and acetylated p53 levels. UMSCC47 (left) and UMSCC74A (right) cells were treated with control (vehicle), CH1iA (10 μM), or CH1iB (10 μM) for 24 hours. Cell lysates were immunoblotted with anti-p53 or anti-acetylated[K382]-p53 antibody.”
Cells were extracted for total RNA using the TRIzol® reagent (Invitrogen) or TaqMan PreAmp Cells-to-CT kit (Applied Biosystems). Expression of p300, p53, p21, miR-34a and miR-200c were determined using the Applied Biosystems 7900HT Fast Real-Time PCR System with validated TaqMan gene expression assays (Applied Biosystems). p53, p300, and p21 expression were normalized to GADPH and miR-34a and miR-200c expression were normalized to RNU44 using the ΔΔCt method.

The subject of another test is UMSCC74A cells. The test can be described thus: Cell proliferation (MTT) in UMSCC74A cells. Particulars: for cell proliferation, single-agent: UMSCC74A (HPV-negative), 10 μM; for effect on efficacy of cis-platinum on proliferation: UMSCC74A, 10 μM with cis-platinum 10 μM.
From the text: as §1, with “Data is normalized to Day 0 and presented as mean±SEM. *P<0.01, control vs. CH1iB or cis-platinum, **P<0.01 CH1iB or cis-platinum vs. CH1iB and cis-platinum, n=6.” left out
Cell proliferation was assessed using the MTT reagent (Roche Molecular Biochemicals, Nutley, N.J.) to detect metabolic active cells. Absorbance was measured at 570 nm in the Spectra Max 190 ELISA reader (Molecular Devices, Sunnyvale, Calif.) after overnight incubation. […] Apoptotic cells were analyzed using BD FACS Calibur (BD Biosciences Corporation, Franklin Lakes, N.J.) at The Ohio State University Comprehensive Cancer Center Analytical Cytometry Core.

The substance “XELA*RALDQ-NH2 (ELXRALDQ; HBS: 4-pentenoic acid, N-allylalanine; C-terminal amide; CH1iB) [X 4-pentenoic acid, A* N-allylalanine]” showed a p53 activity increase in the test with p53 [1] (UMSCC47 (HPV-positive), 10 μM, vs control (vehicle)) of 71%. Also, the “effect of cis-platinum on p53 activity” value in the test with p53 [1] (UMSCC47, CH1iB 10 μM with cis-platinum 10 μM) is reported as “potentiated”. Further, the p53 levels entry in the test with p53 [2] was “did not modulate”. The “Expression of p300, p53, and p53-regulated genes” value in test [3] was “unchanged”. In the test on UMSCC74A cells, the “cell proliferation, single-agent” value was “no effect” and the “effect on efficacy of cis-platinum on proliferation” value is on record as “did not augment”.

In the case of “XTAA*DCEYNAR (TAXDCEYNAR; HBS: 4-pentenoic acid, N-allylalanine; CH1iA) [X 4-pentenoic acid, A* N-allylalanine, reference compound]”, the “p53 activity, effect in words” value in the test on p53 [1] (UMSCC47 (HPV-positive), 10 μM) is “no effect”. The p53 levels entry in the test with p53 [2] was “did not modulate”. For the same substance, the “Expression of p300, p53, and p53-regulated genes” value in test [3] is on record as “unchanged”. Besides, in the test on UMSCC74A cells, the “cell proliferation, single-agent” value is on record as “no effect” and the “effect on efficacy of cis-platinum on proliferation” value was “did not augment”.
